Measurements reported in patent publication US10344019B2 (priority 2010, dated 2019).

What was measured:
Assay in all cases: microbe, parasite or virus in culture
Type in all cases: cell-based
[1] = system: HCV 1a RLuc cells (dicistronic genotype 1a H77 replicon, RLuc reporter); details: Hepatitis C virus, genotype 1a replicon; read-out: 1a
Outline: (§1)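 Replicons used: genotype 1b Con1, 1a H77, 2a JFH-1, and a 2a JFH-1 chimera with J6-strain NS5A (M31 present), all dicistronic.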

[2] = system: HCV 1b RLuc cells (dicistronic genotype 1b Con1 replicon, RLuc reporter); details: Hepatitis C virus, read-out: 1b (nM)
Outline: as §1

[3] = system: HCV 2a JFH-1 Rluc cells (dicistronic genotype 2a JFH-1 replicon, RLuc reporter); details: Hepatitis C virus, genotype 2a JFH-1 replicon; read-out: 2a JFH
Outline: as §1

[4] = system: HCV 3a RLuc cells (NS5A chimeric genotype 1b Con1 replicon with consensus genotype 3a NS5A gene); details: Hepatitis C virus, read-out: 3a, genotype 3a replicon
Outline: (§2)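 Replicon cells stably carrying the listed RLuc-encoding dicistronic replicons were seeded and treated with DMSO serial dilutions of compound (10 mM stocks) diluted into culture medium. After 72 h, cells were lysed and Renilla luciferase activity measured. EC50 was derived by non-linear regression.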

[5] = system: HCV 4a Rluc cells (NS5A chimeric genotype 1b Con1 replicon with genotype 4a NS5A gene); details: Hepatitis C virus, read-out: 4a
Outline: as §2

| SMILES | EC50 [1] | EC50 [2] | EC50 [3] | EC50 [4] | EC50 [5] |
| --- | --- | --- | --- | --- | --- |
| COC(=O)N[C@H](C(=O)N1CCC[C@H]1c1nc2ccc3cc(-c4ccc(-c5cnc([C@@H]6[C@H]7CC[C@H](C7)N6C(=O)[C@@H](NC(=O)OC)C6CCOCC6)[nH]5)c(F)c4)ccc3c2[nH]1)C(C)C [Example 305] | 0.001 to 0.999 nM | 0.017 nM | 0.001 to 0.999 nM | 0.001 to 0.99 nM | 0.001 to 0.99 nM |
| COC(=O)N[C@H](C(=O)N1CCC[C@H]1c1ncc(-c2cc3c4c(c2)OCc2cc(-c5cnc([C@@H]6CCCN6C(=O)C(c6ccccc6)N(C)C)[nH]5)cc(c2-4)OC3)[nH]1)C(C)C (stereo partly shown) [Example 307] | 0.001 to 0.999 nM | 0.091 nM | 0.001 to 0.999 nM | 0.001 to 0.99 nM | 0.001 to 0.99 nM |
| COC(=O)N[C@H](C(=O)N1CCC[C@H]1c1ncc(-c2ccc3c(c2)COc2c-3ccc(-c3cnc([C@@H]4CCCN4C(=O)[C@@H](NC(=O)OC)C(C)C)[nH]3)c2F)[nH]1)C(C)C [Example 308] | 0.001 to 0.999 nM | 0.008 nM | 0.001 to 0.999 nM | 0.001 to 0.99 nM | 0.001 to 0.99 nM |
| COC(=O)N[C@H](C(=O)N1CCC[C@H]1c1ncc(-c2ccc3c4ccc(-c5cnc([C@@H]6CCCN6C(=O)[C@@H](NC(=O)OC)C6CCOCC6)[nH]5)cc4c4ccccc4c3c2)[nH]1)C1CCOCC1 [Example 309] | 0.001 to 0.999 nM | 0.219 nM | 0.001 to 0.999 nM | 0.001 to 0.99 nM | 0.001 to 0.99 nM |
| COC(=O)N[C@H](C(=O)N1CCC[C@H]1c1ncc(-c2ccc3c4ccc(-c5cnc([C@@H]6CCCN6C(=O)[C@@H](NC(=O)OC)[C@@H](C)OC)[nH]5)cc4c4ccccc4c3c2)[nH]1)[C@@H](C)OC [Example 310] | 0.001 to 0.999 nM | 0.041 nM | 0.001 to 0.999 nM | 0.001 to 0.99 nM | 0.001 to 0.99 nM |
| COC(=O)N[C@H](C(=O)N1CCC[C@H]1c1ncc(-c2ccc3c4ccc(-c5cnc([C@@H]6CCCN6C(=O)[C@@H](NC(=O)OC)[C@@H](C)OC)[nH]5)cc4c4ccccc4c3c2)[nH]1)C(C)C [Example 311] | 0.001 to 0.999 nM | 0.025 nM | 0.001 to 0.999 nM | 0.001 to 0.99 nM | 0.001 to 0.99 nM |
| COC(=O)N[C@H](C(=O)N1[C@@H]2CC[C@@H](C2)[C@H]1c1ncc(-c2ccc(-c3ccc4c(ccc5nc([C@@H]6CCCN6C(=O)[C@H](NC(=O)OC)c6ccccc6)[nH]c54)c3)cc2F)[nH]1)C(C)C [Example 312] | 1 to 44 nM | 0.011 nM | 0.001 to 0.999 nM | 0.001 to 0.99 nM | 0.001 to 0.99 nM |
| COC(=O)N[C@H](C(=O)N1CCC[C@H]1c1ncc(-c2cc3c4c(c2)OCc2cc(-c5cnc([C@@H]6CCCN6C(=O)[C@@H](NC(=O)OC)[C@@H](C)OC)[nH]5)cc(c2-4)OC3)[nH]1)C(C)C [Example 313] | 0.001 to 0.999 nM | 0.079 nM | 0.001 to 0.999 nM | 0.001 to 0.99 nM | 0.001 to 0.99 nM |
| COC(=O)N[C@H](C(=O)N1CCS[C@H]1c1nc2ccc3cc(-c4ccc(-c5cnc([C@@H]6CCCN6C(=O)[C@@H](NC(=O)OC)C6CCOCC6)[nH]5)cc4)ccc3c2[nH]1)C(C)C [Example 316] | 0.001 to 0.999 nM | 0.242 nM | 0.001 to 0.999 nM | 0.001 to 0.99 nM | 0.001 to 0.99 nM |
| COC(=O)N[C@H](C(=O)N1[C@@H]2C[C@@H]2C[C@H]1c1nc2ccc3cc(-c4ccc(-c5cnc([C@@H]6[C@H]7CC[C@H](C7)N6C(=O)[C@@H](NC(=O)OC)C6CCOCC6)[nH]5)c(F)c4)ccc3c2[nH]1)C(C)C [Example 320] | 0.001 to 0.999 nM | 0.01 nM | 0.001 to 0.999 nM | 0.001 to 0.99 nM | 0.001 to 0.99 nM |
| COC(=O)NC(C(=O)N1[C@@H]2CC[C@@H](C2)[C@H]1c1ncc(-c2ccc(-c3ccc4c(ccc5nc([C@@H]6C[C@H]7C[C@H]7N6C(=O)[C@@H](NC(=O)OC)C(C)C)[nH]c54)c3)cc2F)[nH]1)[C@@H](C)OC (stereo partly shown) [Example 321] | 0.001 to 0.999 nM | 0.006 nM | 0.001 to 0.999 nM | 0.001 to 0.99 nM | 0.001 to 0.99 nM |
| CC#Cc1cc(-c2cnc([C@@H]3[C@H]4CC[C@H](C4)N3C(=O)[C@@H](NC(=O)OC)C3CCOCC3)[nH]2)ccc1-c1ccc2c(ccc3nc([C@@H]4CCCN4C(=O)[C@@H](NC(=O)OC)C(C)C)[nH]c32)c1 [Example 322] | 0.001 to 0.999 nM | 0.021 nM | 0.001 to 0.999 nM | 0.001 to 0.99 nM | 0.001 to 0.99 nM |
| COC(=O)N[C@H](C(=O)N1CCC[C@H]1c1ncc(-c2ccc3cc(-c4ccc5c(ccc6nc([C@@H]7[C@H]8CC[C@H](C8)N7C(=O)[C@H](NC(=O)OC)c7ccccc7)[nH]c65)c4)ccc3c2)[nH]1)C(C)C [Example 326] | 0.001 to 0.999 nM | 0.005 nM | 0.001 to 0.999 nM | 1 to 4.99 nM | 0.001 to 0.99 nM |
| COC(=O)N[C@H](C(=O)N1CCC[C@H]1c1ncc(-c2ccc3cc(-c4ccc5c(ccc6nc([C@@H]7[C@H]8CC[C@H](C8)N7C(=O)[C@H](NC(=O)OC)c7ccccc7)[nH]c65)c4)ccc3c2)[nH]1)C1CCOCC1 [Example 327] | 0.001 to 0.999 nM | 0.011 nM | 0.001 to 0.999 nM | 0.001 to 0.99 nM | 0.001 to 0.99 nM |
| COC(=O)N[C@H](C(=O)N1CCC[C@H]1c1ncc(-c2ccc3cc(-c4ccc5c(ccc6nc([C@@H]7[C@H]8CC[C@H](C8)N7C(=O)[C@H](NC(=O)OC)c7ccccc7)[nH]c65)c4)ccc3c2)[nH]1)[C@@H](C)OC [Example 328] | 0.001 to 0.999 nM | 0.008 nM | 0.001 to 0.999 nM | 1 to 4.99 nM | 0.001 to 0.99 nM |
| CC#Cc1cc(-c2cnc([C@@H]3[C@H]4CC[C@H](C4)N3C(=O)[C@@H](NC(=O)OC)C(C)C)[nH]2)ccc1-c1ccc(-c2cnc([C@@H]3CCCN3C(=O)[C@@H](NC(=O)OC)C(C)C)[nH]2)cc1 [Example 329] | 0.001 to 0.999 nM | 0.008 nM | 0.001 to 0.999 nM | 1 to 4.99 nM | 0.001 to 0.99 nM |
| COC(=O)N[C@H](C(=O)N1CCC[C@H]1c1ncc(-c2ccc3c(c2F)COc2c-3ccc(-c3cnc([C@@H]4CCCN4C(=O)[C@@H](NC(=O)OC)C(C)C)[nH]3)c2F)[nH]1)C(C)C [Example 330] | 0.001 to 0.999 nM | 0.006 nM | 0.001 to 0.999 nM | 0.001 to 0.99 nM | 0.001 to 0.99 nM |
| COC(=O)N[C@H](C(=O)N1CCC[C@H]1c1ncc(-c2ccc3c(c2)OCc2c-3ccc(-c3cnc([C@@H]4CCCN4C(=O)[C@@H](NC(=O)OC)C(C)C)[nH]3)c2F)[nH]1)C(C)C [Example 331] | 0.001 to 0.999 nM | 0.006 nM | 0.001 to 0.999 nM | 0.001 to 0.99 nM | 0.001 to 0.99 nM |
| COC(=O)N[C@H](C(=O)N1CCS[C@@H]1c1nc2ccc3cc(-c4ccc(-c5cnc([C@@H]6CCCN6C(=O)[C@@H](NC(=O)OC)C6CCOCC6)[nH]5)cc4)ccc3c2[nH]1)C(C)C [Example 332] | 1 to 44 nM | 1.25 nM | 0.001 to 0.999 nM | 1 to 4.99 nM | 0.001 to 0.99 nM |
| COC(=O)N[C@H](C(=O)N1CCC[C@H]1c1ncc(-c2ccc(-c3ccc4c(ccc5nc([C@@H]6SCCN6C(=O)[C@@H](NC(=O)OC)C(C)C)[nH]c54)c3)cc2)[nH]1)C(C)C [Example 333] | 1 to 44 nM | 0.646 nM | 0.001 to 0.999 nM | 1 to 4.99 nM | 0.001 to 0.99 nM |
